Measurements taken from patent US10934298B2, “Substituted pyrazolo[1,5-a]pyrimidines for the treatment of medical disorders” (BIAL—BioTech Investments, Inc., priority 2016, dated 2021).

Target: T1, glucocerebrosidase (Gcase) (Homo sapiens, UniProt P04062)
T1 construct: micellar solution containing 10 nM GCase and 100 nM saposin C
T1 sequence (P04062 40-536): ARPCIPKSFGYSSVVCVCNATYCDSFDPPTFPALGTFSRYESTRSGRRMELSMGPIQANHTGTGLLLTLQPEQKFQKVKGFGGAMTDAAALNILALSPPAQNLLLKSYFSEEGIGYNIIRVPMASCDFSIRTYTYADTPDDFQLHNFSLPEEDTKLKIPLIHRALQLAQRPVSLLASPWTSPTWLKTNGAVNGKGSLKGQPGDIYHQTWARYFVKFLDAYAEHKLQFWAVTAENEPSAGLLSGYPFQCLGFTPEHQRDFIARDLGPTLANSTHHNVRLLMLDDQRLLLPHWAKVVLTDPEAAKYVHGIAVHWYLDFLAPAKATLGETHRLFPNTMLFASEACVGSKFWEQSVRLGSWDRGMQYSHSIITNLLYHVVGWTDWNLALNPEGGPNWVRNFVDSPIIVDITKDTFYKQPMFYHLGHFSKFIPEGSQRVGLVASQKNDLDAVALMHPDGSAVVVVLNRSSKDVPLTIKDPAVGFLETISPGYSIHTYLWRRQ
Assay: Glucocerebrosidase (Gcase) activation assay with 4-methylumbelliferyl-beta-D-glucopyranoside substrate, saposin C and phosphatidylserine/triton micelles, fluorescence readout
Format: biochemical
Settings: Table 3A
Protocol: The ability of exemplary compounds to activate glucocerebrosidase (Gcase) was measured.
A 484 μL aliquot of a 1.0 mg/mL solution of phosphatidylserine (PS) (Sigma P7769) in chloroform was evaporated under a stream of nitrogen for 1 hour. The lipid film was dissolved over 4 minutes of vigorous vortexing in 40 mL of 176 mM K2HPO4/50 mM citric acid (pH 4.7) containing 7.5 μL of triton X-100, resulting in a mixed micellar preparation with a composition of 0.32 mM triton and 0.37 mol % PS. 4-Methylumbelliferyl-beta-D-glucopyranoside (ACROS-337025000) was dissolved in the micellar solution to a final concentration of 2 mM for use as the reaction substrate.
Test compounds were diluted to the desired concentrations with dimethylsulfoxide (DMSO) from 10 mM stocks, and 0.41 μL of the DMSO compound mixture was added to 100 μL of micellar solution containing 10 nM GCase and 100 nM saposin C (Enzo ALX-201-262-C050). Pre-incubation was allowed to occur for 30 minutes at room temperature, after which the reaction was initiated by combining 25 μL of substrate solution with 25 μL of compound/GCase/saposin mixture. The reaction proceeded for 15 minutes at room temperature and was stopped by adding 150 μL of 1M glycine, pH 12.5. The endpoint of the reaction was monitored by measuring fluorescence intensity (excitation: 365 nm; emission: 440 nm) on a SpectraMax i3 instrument (Molecular Devices). Test compounds were screened at 1.0 and 0.1 μM final concentration, and subsequent 8-point dose response curves were obtained using 3-fold dilutions from a maximum final concentration of 5 μM.

`CCc1cc(-c2ccccn2)n2ncc(C(=O)NC(C)C(F)(F)F)c2n1` (centres unmarked) [III-51] was tested, and the “Percent Gcase Activation, 0.1 μM Test Compound” value was “* (less than 10% Gcase activation)” and the “Percent Gcase Activation, 1 μM Test Compound” value was “+ (less than 30% Gcase activation)”.

With `CCc1cc(-c2ccccn2)nc2c(C(=O)NC(C)C(F)(F)F)cnn12` (centres unmarked) [III-52] the “Percent Gcase Activation, 0.1 μM Test Compound” value was “* (less than 10% Gcase activation)” and the “Percent Gcase Activation, 1 μM Test Compound” value was “+++ (Gcase activation greater than 60%)”.

`COc1cccc(-c2cc(C)n3ncc(C(=O)NC(C)C(F)(F)F)c3n2)c1` (centres unmarked) [III-55] was tested, and the “Percent Gcase Activation, 0.1 μM Test Compound” value was “*** (greater than 20% Gcase activation)” and the “Percent Gcase Activation, 1 μM Test Compound” value was “+++ (Gcase activation greater than 60%)”.

With `Cc1cc(-c2cccc(F)c2)nc2c(C(=O)N[C@@H](C)C3CC3)cnn12` [III-56] the “Percent Gcase Activation, 0.1 μM Test Compound” value was “*** (greater than 20% Gcase activation)” and the “Percent Gcase Activation, 1 μM Test Compound” value was “+++ (Gcase activation greater than 60%)”.

With `COc1cccc(-c2cc(C)n3ncc(C(=O)N[C@@H](C)C4CC4)c3n2)c1` [III-57] the “Percent Gcase Activation, 0.1 μM Test Compound” value was “*** (greater than 20% Gcase activation)” and the “Percent Gcase Activation, 1 μM Test Compound” value was “+++ (Gcase activation greater than 60%)”.

`Cc1cc(N2CCOCC2)nc2c(C(=O)NC(C)C3CC3)cnn12` (centres unmarked) [III-58] was tested, and the “Percent Gcase Activation, 0.1 μM Test Compound” value was “* (less than 10% Gcase activation)” and the “Percent Gcase Activation, 1 μM Test Compound” value was “+ (less than 30% Gcase activation)”.

For `Cc1cc(N2CCOCC2)nc2c(C(=O)NC(C)(C)C3CC3)cnn12` [III-59], the “Percent Gcase Activation, 0.1 μM Test Compound” value was “* (less than 10% Gcase activation)” and the “Percent Gcase Activation, 1 μM Test Compound” value was “++ (Gcase activation in the range of 30% up to 60%)”.

`Cc1cc(N2CCC(F)(F)CC2)nc2c(C(=O)NC(C)C3CC3)cnn12` (centres unmarked) [III-60] was tested, and the “Percent Gcase Activation, 0.1 μM Test Compound” value was “* (less than 10% Gcase activation)” and the “Percent Gcase Activation, 1 μM Test Compound” value was “++ (Gcase activation in the range of 30% up to 60%)”.

`Cc1cc(N2CCCC(F)(F)C2)nc2c(C(=O)NC(C)C3CC3)cnn12` (centres unmarked) [III-61] was tested, and the “Percent Gcase Activation, 0.1 μM Test Compound” value was “*** (greater than 20% Gcase activation)” and the “Percent Gcase Activation, 1 μM Test Compound” value was “+++ (Gcase activation greater than 60%)”.

In the case of `Cc1cc(-c2cccc(Cl)n2)nc2c(C(=O)NC(C)(C)C3CC3)cnn12` [III-62], the “Percent Gcase Activation, 0.1 μM Test Compound” value is reported as “*** (greater than 20% Gcase activation)” and the “Percent Gcase Activation, 1 μM Test Compound” value is reported as “+++ (Gcase activation greater than 60%)”.

`C#CC(C)(C)NC(=O)c1cnn2c(C)cc(-c3cccc(Cl)n3)nc12` [III-63] was tested, and the “Percent Gcase Activation, 0.1 μM Test Compound” value was “** (Gcase activation in the range of 10% up to 20%)” and the “Percent Gcase Activation, 1 μM Test Compound” value was “++ (Gcase activation in the range of 30% up to 60%)”.

In the case of `Cc1cc(-c2cccc(Cl)c2)nc2c(C(=O)NC(C)C(F)(F)F)cnn12` (centres unmarked) [III-64], the “Percent Gcase Activation, 0.1 μM Test Compound” value is reported as “*** (greater than 20% Gcase activation)” and the “Percent Gcase Activation, 1 μM Test Compound” value is reported as “+++ (Gcase activation greater than 60%)”.

For `Cc1cc(-c2cccc(Cl)c2)nc2c(C(=O)N[C@@H](C)C3CC3)cnn12` [III-65], the “Percent Gcase Activation, 0.1 μM Test Compound” value was “*** (greater than 20% Gcase activation)” and the “Percent Gcase Activation, 1 μM Test Compound” value was “+++ (Gcase activation greater than 60%)”.

With `Cc1cc(N2CCCC(F)(F)C2)nc2c(C(=O)NC(C3CC3)C(F)(F)F)cnn12` (centres unmarked) [III-66] the “Percent Gcase Activation, 0.1 μM Test Compound” value was “*** (greater than 20% Gcase activation)” and the “Percent Gcase Activation, 1 μM Test Compound” value was “+++ (Gcase activation greater than 60%)”.

For `Cc1cc(N2CCC(F)(F)C2)nc2c(C(=O)NC(C3CC3)C(F)(F)F)cnn12` (centres unmarked) [III-67], the “Percent Gcase Activation, 0.1 μM Test Compound” value was “*** (greater than 20% Gcase activation)” and the “Percent Gcase Activation, 1 μM Test Compound” value was “+++ (Gcase activation greater than 60%)”.

For `Cc1cc(C(F)(F)F)nc2c(C(=O)NC(C)(C)C3CC3)cnn12` [III-68], the “Percent Gcase Activation, 0.1 μM Test Compound” value was “* (less than 10% Gcase activation)” and the “Percent Gcase Activation, 1 μM Test Compound” value was “+ (less than 30% Gcase activation)”.

For `C#CC(C)(C)NC(=O)c1cnn2c(C)cc(-c3cccc(OC)c3)nc12` [III-69], the “Percent Gcase Activation, 0.1 μM Test Compound” value was “*** (greater than 20% Gcase activation)” and the “Percent Gcase Activation, 1 μM Test Compound” value was “+++ (Gcase activation greater than 60%)”.

In the case of `Cc1cc(-c2cccc(C#N)c2)nc2c(C(=O)N[C@@H](C)C3CC3)cnn12` [III-70], the “Percent Gcase Activation, 0.1 μM Test Compound” value is reported as “*** (greater than 20% Gcase activation)” and the “Percent Gcase Activation, 1 μM Test Compound” value is reported as “+++ (Gcase activation greater than 60%)”.

For `Cc1cc(-c2cccc(C#N)c2)nc2c(C(=O)NC(C)(C)C3CC3)cnn12` [III-71], the “Percent Gcase Activation, 0.1 μM Test Compound” value was “*** (greater than 20% Gcase activation)” and the “Percent Gcase Activation, 1 μM Test Compound” value was “+++ (Gcase activation greater than 60%)”.

With `Cc1cc(-c2cccc(C#N)c2)nc2c(C(=O)NC(C3CC3)C(F)(F)F)cnn12` (centres unmarked) [III-72] the “Percent Gcase Activation, 0.1 μM Test Compound” value was “*** (greater than 20% Gcase activation)” and the “Percent Gcase Activation, 1 μM Test Compound” value was “+++ (Gcase activation greater than 60%)”.

For `Cc1cc(-c2cccc(C(N)=O)c2)nc2c(C(=O)NC(C3CC3)C(F)(F)F)cnn12` (centres unmarked) [III-73], the “Percent Gcase Activation, 0.1 μM Test Compound” value was “*** (greater than 20% Gcase activation)” and the “Percent Gcase Activation, 1 μM Test Compound” value was “+++ (Gcase activation greater than 60%)”.

For `COCc1cc(-c2cccc(F)c2)nc2c(C(=O)NC(C)(C)C3CC3)cnn12` [III-74], the “Percent Gcase Activation, 0.1 μM Test Compound” value was “** (Gcase activation in the range of 10% up to 20%)” and the “Percent Gcase Activation, 1 μM Test Compound” value was “+++ (Gcase activation greater than 60%)”.

For `C#CC(C)(C)NC(=O)c1cnn2c(C)cc(-c3cccc(F)c3)nc12` [III-75], the “Percent Gcase Activation, 0.1 μM Test Compound” value was “*** (greater than 20% Gcase activation)” and the “Percent Gcase Activation, 1 μM Test Compound” value was “+++ (Gcase activation greater than 60%)”.

In the case of `CCOc1cccc(-c2cc(C)n3ncc(C(=O)NC(C)C(F)(F)F)c3n2)c1` (centres unmarked) [III-76], the “Percent Gcase Activation, 0.1 μM Test Compound” value is reported as “*** (greater than 20% Gcase activation)” and the “Percent Gcase Activation, 1 μM Test Compound” value is reported as “+++ (Gcase activation greater than 60%)”.

With `Cc1cc(-c2cccc(OC3CC3)c2)nc2c(C(=O)NC(C)C(F)(F)F)cnn12` (centres unmarked) [III-77] the “Percent Gcase Activation, 0.1 μM Test Compound” value was “*** (greater than 20% Gcase activation)” and the “Percent Gcase Activation, 1 μM Test Compound” value was “+++ (Gcase activation greater than 60%)”.

For `Cc1cc(NC2CC2)nc2c(C(=O)NC(C3CC3)C3CC3)cnn12` [III-78], the “Percent Gcase Activation, 0.1 μM Test Compound” value was “*** (greater than 20% Gcase activation)” and the “Percent Gcase Activation, 1 μM Test Compound” value was “+++ (Gcase activation greater than 60%)”.

In the case of `COCc1cc(-c2cccc(OC)c2)nc2c(C(=O)NC(C)(C)C3CC3)cnn12` [III-79], the “Percent Gcase Activation, 0.1 μM Test Compound” value is reported as “*** (greater than 20% Gcase activation)” and the “Percent Gcase Activation, 1 μM Test Compound” value is reported as “+++ (Gcase activation greater than 60%)”.

`Cc1cc(-c2cccc(F)c2)nc2c(C(=O)NC(C)(C)C(F)(F)F)cnn12` [III-80] was tested, and the “Percent Gcase Activation, 0.1 μM Test Compound” value was “** (Gcase activation in the range of 10% up to 20%)” and the “Percent Gcase Activation, 1 μM Test Compound” value was “+++ (Gcase activation greater than 60%)”.

In the case of `C#CC(C)(C)NC(=O)c1cnn2c(C)cc(-c3cccc(Cl)c3)nc12` [III-81], the “Percent Gcase Activation, 0.1 μM Test Compound” value is reported as “*** (greater than 20% Gcase activation)” and the “Percent Gcase Activation, 1 μM Test Compound” value is reported as “+++ (Gcase activation greater than 60%)”.

`C#CC(C)(C)NC(=O)c1cnn2c(C)cc(-c3cccc(OC4CC4)c3)nc12` [III-82] was tested, and the “Percent Gcase Activation, 0.1 μM Test Compound” value was “*** (greater than 20% Gcase activation)” and the “Percent Gcase Activation, 1 μM Test Compound” value was “+++ (Gcase activation greater than 60%)”.

In the case of `Cc1cc(-c2ccc3ocnc3c2)nc2c(C(=O)NC(C3CC3)C(F)(F)F)cnn12` (centres unmarked) [III-83], the “Percent Gcase Activation, 0.1 μM Test Compound” value is reported as “*** (greater than 20% Gcase activation)” and the “Percent Gcase Activation, 1 μM Test Compound” value is reported as “+++ (Gcase activation greater than 60%)”.
